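Interpolation was linear, between the two tested concentrations surrounding the appropriate level; five concentrations were tested over 48 hours in 96-well plates. GI50: concentration for 50% inhibition of growth.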 Calls of active or inactive are those of the source. Rule as the data show it: active = GI50 up to about 1.1 µM and inactive = higher.
Key:
Experiment in all cases: NCI tumour cell line growth inhibition, 48 h
HOP-92 = tested on: HOP-92
NCI-H23 = tested on: NCI-H23
SK-MEL-2 = tested on: SK-MEL-2
SF-539 = tested on: SF-539
T47D = tested on: T47D
BT-549 = tested on: BT-549
SK-MEL-5 = tested on: SK-MEL-5
HL-60 = tested on: HL-60
PC-3 = tested on: PC-3
SK-MEL-28 = tested on: SK-MEL-28
SW-620 = tested on: SW-620
UACC-62 = tested on: UACC-62
NCI-H522 = tested on: NCI-H522
Malme-3M = tested on: Malme-3M
IGROV-1 = tested on: IGROV-1
SR = tested on: SR
RPMI-8226 = tested on: RPMI-8226
NCI-H226 = tested on: NCI-H226
HCC 2998 = tested on: HCC 2998
OVCAR-3 = tested on: OVCAR-3
HCT-116 = tested on: HCT-116
MDA-N = tested on: MDA-N
CAKI-1 = tested on: CAKI-1
DU-145 = tested on: DU-145
SNB-75 = tested on: SNB-75
UACC-257 = tested on: UACC-257
OVCAR-4 = tested on: OVCAR-4
EKVX = tested on: EKVX
COLO 205 = tested on: COLO 205
Hs-578T = tested on: Hs-578T
SF-295 = tested on: SF-295
A498 = tested on: A498
SN12C = tested on: SN12C
LOX IMVI = tested on: LOX IMVI
ACHN = tested on: ACHN
NCI/ADR-RES = tested on: NCI/ADR-RES
MCF7 = tested on: MCF7
MOLT-4 = tested on: MOLT-4
UO-31 = tested on: UO-31
SK-OV-3 = tested on: SK-OV-3
MDA-MB-435 = tested on: MDA-MB-435
KM12 = tested on: KM12
NCI-H460 = tested on: NCI-H460
HCT-15 = tested on: HCT-15
M14 = tested on: M14
RXF 393 = tested on: RXF 393
SF-268 = tested on: SF-268
OVCAR-5 = tested on: OVCAR-5
OVCAR-8 = tested on: OVCAR-8
CCRF-CEM = tested on: CCRF-CEM
K562 = tested on: K562
786-0 = tested on: 786-0
HT-29 = tested on: HT-29
HOP-62 = tested on: HOP-62
TK-10 = tested on: TK-10
A549 = tested on: A549
U-251 = tested on: U-251
MDA-MB-231 = tested on: MDA-MB-231
SNB-19 = tested on: SNB-19

Clc1ccc(-c2nnc(-c3c(Cl)c(Cl)c(Cl)c(Cl)c3-c3nc4ccccc4[nH]3)o2)cc1
GI50 (HOP-92): 31.7 µM (inactive)
GI50 (NCI-H23): 45 µM (inactive)
GI50 (SK-MEL-2): > 100 µM (inactive)
GI50 (SF-539): > 100 µM (inactive)
GI50 (T47D): 21 µM (inactive)
GI50 (BT-549): 70.1 µM (inactive)
GI50 (SK-MEL-5): 40.4 µM (inactive)
GI50 (HL-60): > 100 µM (inactive)
GI50 (PC-3): 97.5 µM (inactive)
GI50 (SK-MEL-28): > 100 µM (inactive)
GI50 (SW-620): > 100 µM (inactive)
GI50 (UACC-62): 63.4 µM (inactive)
GI50 (NCI-H522): 47.9 µM (inactive)
GI50 (Malme-3M): > 100 µM (inactive)
GI50 (IGROV-1): 30.2 µM (inactive)
GI50 (SR): 34.3 µM (inactive)
GI50 (RPMI-8226): 31.8 µM (inactive)
GI50 (NCI-H226): 54.5 µM (inactive)
GI50 (HCC 2998): 59 µM (inactive)
GI50 (OVCAR-3): 61.7 µM (inactive)
GI50 (HCT-116): 31.6 µM (inactive)
GI50 (MDA-N): 53.5 µM (inactive)
GI50 (CAKI-1): 56.1 µM (inactive)
GI50 (DU-145): 78.2 µM (inactive)
GI50 (SNB-75): 68.7 µM (inactive)
GI50 (UACC-257): > 100 µM (inactive)
GI50 (OVCAR-4): 84.9 µM (inactive)
GI50 (EKVX): 54.3 µM (inactive)
GI50 (COLO 205): 52.2 µM (inactive)
GI50 (Hs-578T): > 100 µM (inactive)
GI50 (SF-295): 48.5 µM (inactive)
GI50 (A498): 82.8 µM (inactive)
GI50 (SN12C): 46.8 µM (inactive)
GI50 (LOX IMVI): 71.9 µM (inactive)
GI50 (ACHN): 97.3 µM (inactive)
GI50 (NCI/ADR-RES): 47.4 µM (inactive)
GI50 (MCF7): 35.1 µM (inactive)
GI50 (MOLT-4): 27.2 µM (inactive)
GI50 (UO-31): 42.7 µM (inactive)
GI50 (SK-OV-3): > 100 µM (inactive)
GI50 (MDA-MB-435): > 100 µM (inactive)
GI50 (KM12): 97.5 µM (inactive)
GI50 (NCI-H460): 44 µM (inactive)
GI50 (HCT-15): 55.3 µM
GI50 (M14): 69.8 µM (inactive)
GI50 (RXF 393): 40.7 µM (inactive)
GI50 (SF-268): > 100 µM (inactive)
GI50 (OVCAR-5): > 100 µM (inactive)
GI50 (OVCAR-8): 48.2 µM (inactive)
GI50 (CCRF-CEM): 59.4 µM (inactive)
GI50 (K562): 34.3 µM (inactive)
GI50 (786-0): 50.4 µM (inactive)
GI50 (HT-29): 98.9 µM (inactive)
GI50 (HOP-62): > 100 µM (inactive)

NCCCC[C@H](N)C(=O)Nc1ccc(-c2nc3ccccc3s2)cc1
GI50 (HOP-92): 34.7 µM (inactive)
GI50 (NCI-H23): 25.6 µM (inactive)
GI50 (SK-MEL-2): 29.1 µM (inactive)
GI50 (T47D): 33.7 µM (inactive)
GI50 (BT-549): 28.6 µM (inactive)
GI50 (SK-MEL-5): 33.4 µM (inactive)
GI50 (PC-3): 25.6 µM (inactive)
GI50 (SK-MEL-28): 19.7 µM (inactive)
GI50 (SW-620): 16.9 µM (inactive)
GI50 (UACC-62): 21.7 µM (inactive)
GI50 (NCI-H522): 17 µM (inactive)
GI50 (Malme-3M): 19.4 µM (inactive)
GI50 (IGROV-1): 16.7 µM (inactive)
GI50 (SR): 18.4 µM (inactive)
GI50 (TK-10): 57.7 µM (inactive)
GI50 (NCI-H226): 25.6 µM (inactive)
GI50 (HCC 2998): 26.7 µM (inactive)
GI50 (A549): 31.2 µM (inactive)
GI50 (OVCAR-3): 20.4 µM (inactive)
GI50 (HCT-116): 19 µM (inactive)
GI50 (MDA-N): 15.7 µM (inactive)
GI50 (CAKI-1): 37.9 µM (inactive)
GI50 (DU-145): 21.7 µM (inactive)
GI50 (U-251): 14.3 µM (inactive)
GI50 (SNB-75): 16.8 µM (inactive)
GI50 (UACC-257): 70 µM (inactive)
GI50 (OVCAR-4): 36.2 µM (inactive)
GI50 (EKVX): 10.1 µM (inactive)
GI50 (COLO 205): 18.7 µM (inactive)
GI50 (Hs-578T): 23.1 µM (inactive)
GI50 (SF-295): 15.7 µM (inactive)
GI50 (MDA-MB-231): 15.1 µM (inactive)
GI50 (A498): 22.1 µM (inactive)
GI50 (SN12C): 24.8 µM (inactive)
GI50 (LOX IMVI): 24.8 µM (inactive)
GI50 (ACHN): 20.3 µM (inactive)
GI50 (NCI/ADR-RES): 21.6 µM (inactive)
GI50 (MOLT-4): 16.2 µM (inactive)
GI50 (UO-31): 12.7 µM (inactive)
GI50 (SK-OV-3): 21.1 µM (inactive)
GI50 (MDA-MB-435): 18.7 µM (inactive)
GI50 (KM12): 18.5 µM (inactive)
GI50 (NCI-H460): 16.9 µM (inactive)
GI50 (HCT-15): 17.4 µM
GI50 (SNB-19): 16.7 µM (inactive)
GI50 (M14): 12.6 µM (inactive)
GI50 (RXF 393): 33.2 µM (inactive)
GI50 (SF-268): 23.2 µM (inactive)
GI50 (OVCAR-5): 14.9 µM (inactive)
GI50 (OVCAR-8): 19.8 µM (inactive)
GI50 (CCRF-CEM): 9.89 µM (inactive)
GI50 (K562): 19.6 µM (inactive)
GI50 (786-0): 18.1 µM (inactive)
GI50 (HT-29): 16.5 µM (inactive)
GI50 (HOP-62): 25.1 µM (inactive)

CC(C)=NN/C(=N\c1ccc(Cl)cc1)NS(=O)(=O)c1ccc(Oc2cccc(Cl)c2C#N)cc1
GI50 (HOP-92): > 100 µM (inactive)
GI50 (NCI-H23): > 100 µM (inactive)
GI50 (SK-MEL-2): > 100 µM (inactive)
GI50 (T47D): > 100 µM (inactive)
GI50 (BT-549): > 100 µM (inactive)
GI50 (SK-MEL-5): > 100 µM (inactive)
GI50 (HL-60): > 100 µM (inactive)
GI50 (PC-3): > 100 µM (inactive)
GI50 (SK-MEL-28): > 100 µM (inactive)
GI50 (SW-620): > 100 µM (inactive)
GI50 (UACC-62): > 100 µM (inactive)
GI50 (NCI-H522): > 100 µM (inactive)
GI50 (Malme-3M): > 100 µM (inactive)
GI50 (IGROV-1): > 100 µM (inactive)
GI50 (RPMI-8226): > 100 µM (inactive)
GI50 (TK-10): > 100 µM (inactive)
GI50 (NCI-H226): > 100 µM (inactive)
GI50 (A549): > 100 µM (inactive)
GI50 (OVCAR-3): > 100 µM (inactive)
GI50 (HCT-116): > 100 µM (inactive)
GI50 (MDA-N): > 100 µM (inactive)
GI50 (CAKI-1): > 100 µM (inactive)
GI50 (DU-145): > 100 µM (inactive)
GI50 (U-251): > 100 µM (inactive)
GI50 (UACC-257): > 100 µM (inactive)
GI50 (OVCAR-4): > 100 µM (inactive)
GI50 (EKVX): > 100 µM (inactive)
GI50 (COLO 205): > 100 µM (inactive)
GI50 (Hs-578T): > 100 µM (inactive)
GI50 (SF-295): > 100 µM (inactive)
GI50 (MDA-MB-231): > 100 µM (inactive)
GI50 (SN12C): > 100 µM (inactive)
GI50 (LOX IMVI): > 100 µM (inactive)
GI50 (NCI/ADR-RES): > 100 µM (inactive)
GI50 (MCF7): > 100 µM (inactive)
GI50 (MOLT-4): > 100 µM (inactive)
GI50 (UO-31): > 100 µM (inactive)
GI50 (MDA-MB-435): > 100 µM (inactive)
GI50 (KM12): > 100 µM (inactive)
GI50 (NCI-H460): > 100 µM (inactive)
GI50 (HCT-15): > 100 µM
GI50 (SNB-19): > 100 µM (inactive)
GI50 (M14): > 100 µM (inactive)
GI50 (SF-268): > 100 µM (inactive)
GI50 (OVCAR-5): > 100 µM (inactive)
GI50 (OVCAR-8): > 100 µM (inactive)
GI50 (CCRF-CEM): > 100 µM (inactive)
GI50 (K562): > 100 µM (inactive)
GI50 (786-0): > 100 µM (inactive)
GI50 (HT-29): > 100 µM (inactive)
GI50 (HOP-62): > 100 µM (inactive)

From ChEMBL document CHEMBL1201862, “PubChem BioAssay data set” (2004)
